As a reminder, the Tm is the temperature at which the thermal transition is half complete. A word on the Kd: it is the concentration at which binding is half-saturated. The low end stands for a tighter complex, the high end for a looser complex.

21 molecules from ChEMBL document CHEMBL3871298, “Virtual screening and biophysical studies lead to HSP90 inhibitors” (Bioorg Med Chem Lett, 2017) can be followed below.

In series [1] the test system is Saccharomyces cerevisiae. In words: Binding affinity to yeast HSP90 N-terminal ATP binding domain by high-throughput virtual screening method.
For series [2], the target named is T1, Heat shock protein HSP 90-alpha (Homo sapiens, UniProt P07900). As to the kind of experiment: Binding affinity to human HSP90alpha isoform 1 N-terminal ATP binding domain (9 to 236 residues) expressed in Escherichia coli BL21(DE3) assessed as melting temperature at 100 uM by SYPRO orange dye-based thermal shift assay.
The nature of series [3]: Aqueous solubility of the compound at >100 uM. To be noted: buffer. The series is classed as physicochemical.
Series [4] deals with T1, Heat shock protein HSP 90-alpha. In words: Binding affinity to 15N-labeled human HSP90alpha isoform 1 N-terminal ATP binding domain (9 to 236 residues) expressed in Escherichia coli BL21(DE3) by 1H-15N HSQC NMR spectroscopy.
Series [5] shares this target. In words: Binding affinity to 15N-labeled human HSP90alpha isoform 1 N-terminal ATP binding domain (9 to 236 residues) expressed in Escherichia coli BL21(DE3) assessed as reduction in protein signal intensity at 625 uM by 1H-15N HSQC NMR spectroscopy.

The source made the active and inactive calls. The rule behind the calls is not given here.

On to `O=C(Cc1ccc2c(c1)OCCCO2)c1ccc(O)c(O)c1O`, for which, in series [1], the result was Active. The midpoint of thermal melting (Tm) in series [2] was 37.5 °C. In series [3], the solubility entry is given as “Soluble”. Binding in series [4] was characterised by a dissociation constant (Kd) of 370 µM.

`O=C(O)C1Cc2c([nH]c3ccccc23)C(c2ccc(O)c(O)c2)N1` (configuration not stated): the outcome in series [1] was Active. The Tm in series [2] is 31.3 °C. Besides, the solubility entry in series [3] is listed as “Soluble”.

As for `CCc1cc(-c2n[nH]c(C)c2-c2ccc3c(c2)OCCCO3)c(O)cc1OCC(=O)O`, the result in series [1] was Active. Besides, the Tm in series [2] turned out to be 32.2 °C. Moreover, the solubility result in series [3] is on record as “Soluble”.

Regarding `O=C(O)COc1cc(OCC(=O)O)c2c(-c3ccccc3)cc(=O)oc2c1`, the outcome in series [1] was Active. Also, the Tm in series [2] was found to be 32.4 °C. Also, the solubility entry in series [3] is given as “Soluble”.

As for `CCOC(=O)c1ccc(-c2c(-c3cc(CC)c(O)cc3O)n[nH]c2C)o1`, the outcome in series [1] was Active. The Tm in series [2] worked out at 49.8 °C. Further, the solubility entry in series [3] is reported as “Soluble”. In series [4], this molecule showed a Kd of 3 µM.

As to `N=c1oc2cc(O)ccc2cc1C(=O)NCc1ccccc1`, in series [1], the outcome was Active. Moreover, in series [2], the Tm stood at 35.5 °C. Moreover, the solubility entry in series [3] is “Soluble”.

As to `COc1ccc2[nH]cc(C(=O)CN3C[C@@H]4C[C@@H](C3)c3cccc(=O)n3C4)c2c1`, the outcome in series [1] was Active. In series [2], the Tm was found to be 33.1 °C. The solubility result in series [3] is reported as “Soluble”.

Consider `Nc1ncnc2c1ncn2[C@@H]1O[C@H](COP(=O)(O)OP(=O)(O)O)[C@@H](O)[C@H]1O`, for which the Tm in series [2] was determined as 36.7 °C.

On to `Cc1oc2cc(OCC(=O)NCO)ccc2c(=O)c1-c1ccc2c(c1)OCCCO2`, for which the outcome in series [1] was Active. Further, the Tm in series [2] stood at 32.4 °C. In series [3], the solubility result is “Soluble”.

As for `CC(=O)Nc1ccc(N[C@@H]2O[C@H](CO)[C@@H](O)[C@H]2O)cc1`, the result in series [1] was Active. In addition, the Tm in series [2] was 31.8 °C. The solubility entry in series [3] was “Soluble”.

With `O=c1c2[nH]c3ccccc3c2ncn1CCc1ccc(O)cc1`, the outcome in series [1] was Active. In addition, in series [2], the melting temperature (Tm) worked out at 30.8 °C. Also, the solubility result in series [3] is listed as “Insoluble”.

For the molecule `CCc1cc(C(=O)Cc2ccc(OC)cc2)c(O)cc1O`, in series [1], the outcome was Active. Besides, in series [2], the Tm was determined as 42.1 °C. Moreover, the solubility entry in series [3] was “Soluble”. In series [4], this molecule returned a Kd of 20 µM.

Take `CC(NCc1c(O)ccc2c(-c3ccccc3)cc(=O)oc12)C(=O)O` (configuration not stated): the outcome in series [1] was Active. Further, the Tm in series [2] came out at 32.5 °C. Besides, in series [3], the solubility result is recorded as “Soluble”.

Take `CCCc1cc(C(=O)Cc2ccc(C(=O)OCC)o2)c(O)cc1O`: the outcome in series [1] was Active. The Tm in series [2] is 40.3 °C. Also, in series [3], the solubility entry is on record as “Soluble”. Also, the Kd in series [4] turned out to be 2 µM.

In the case of `O=c1c2[nH]c3ccccc3c2ncn1CCc1c[nH]cn1`, the result in series [1] was Active. Besides, in series [2], the Tm was 32.3 °C. For the same molecule, the solubility entry in series [3] was “Soluble”.

Take `Cc1cc(=O)oc2cc(OCc3ccc(C(=O)O)o3)ccc12`: the result in series [1] was Active. The Tm in series [2] worked out at 32.4 °C. Moreover, the solubility result in series [3] is “Soluble”.

Consider `Cc1c(OCc2ccc(C(=O)O)o2)ccc2c3c(c(=O)oc12)CCC3`, for which the result in series [1] and in series [5] was Active. For the same molecule, the Tm in series [2] is 32.7 °C. In addition, the solubility entry in series [3] was “Soluble”.

As to `O=c1c2[nH]c3ccccc3c2ncn1CCc1ccc(O)c(O)c1`, the outcome in series [1] was Active. Besides, in series [2], the midpoint of thermal melting (Tm) is 36.5 °C. Moreover, the solubility result in series [3] is listed as “Soluble”.

For the molecule `CCOC(=O)c1cc2n(c1N)-c1ccccc1C2=O`, in series [1], the result was Active. Also, the Tm in series [2] worked out at 32.4 °C. In addition, in series [3], the solubility result is on record as “Soluble”.

Consider `O=C(Cc1c(O)c2ccccc2[nH]c1=O)NCCO`, for which the result in series [1] was Active. In series [2], the Tm amounted to 32.8 °C. Also, the solubility result in series [3] is “Soluble”.

For `CCCc1cc(C(=O)Cc2ccc3c(c2)OCO3)c(O)cc1O`, the outcome in series [1] was Active. Besides, in series [2], the Tm amounted to 41.7 °C. The solubility result in series [3] is “Soluble”. Further, the Kd in series [4] is > 500 µM.
